Assay results taken from PubChem BioAssay AID624404 (Broad Institute, 2012).
Results filed as inconclusive are left out. Activity calls are given as the source filed them.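 How the source made its calls: active means luciferase signal rise whose fitted curve crosses a set activity limit at or below the top valid tested dose; inconclusive means flat fit with 30 to 70% rise, or poor fit; inactive means signal falling, flat within 30%, or crossing above top dose.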

Test system: D54 LucT luciferase reporter counterscreen, luminescence, 24 h
Experiment: luciferase activators in glycosylation-insensitive reporter cells, dose response, counter-screen for N-linked glycosylation inhibitor project, D54 LucT cells, luminescence, cherry pick (AID 624404)

Row | Compound | AC35
1 | O=c1cc(-c2ccccc2)nc2cc(-c3ccc(F)cc3)[nH]n12 | 2190 nM
2 | COc1ccc(/C=C/C(=O)c2c(O)cc(OC)cc2OC)cc1 | 3210 nM
3 | COc1ccc(/C=N\NC(=O)c2sccc2C)cc1Cn1nc(C)cc1C | 280 nM
4 | NC(=O)c1cccc(-c2ccnc3c2CC(C(=O)NCc2ccccc2)O3)c1 (stereo not given) | 283 nM
5 | O=C(O)c1ccc(CN2C(=O)c3cccc4c([N+](=O)[O-])ccc(c34)C2=O)cc1 | 1140 nM
6 | COc1cc(NC(C(=O)Nc2cccc(C(C)=O)c2)c2ccccc2)cc(OC)c1OC (stereo not given) | 5.56 nM
7 | COc1cc(C(=O)OCCCN2CCCN(CCCOC(=O)c3cc(OC)c(OC)c(OC)c3)CC2)cc(OC)c1OC | 2190 nM
8 | O=C1c2cccc3c([N+](=O)[O-])ccc(c23)C(=O)N1CC1CCCO1 (stereo not given) | 315 nM
9 | COc1ccc2c(c1)[C@H]1[C@H](CO2)[C@H](c2ccccc2)[C@]2(C)C(=O)Nc3ccccc3C(=O)N12 | 353 nM
10 | Cc1cccn2c(=O)c3cc(C(=O)NC4CCCCC4)n(C)c3nc12 | 7540 nM
11 | COc1cc(C(=O)N/N=C(\C)c2ccc3c(c2)OCO3)cc(OC)c1OC | 92.4 nM
12 | COc1ccccc1CCC(=O)Nc1ccc2c(c1)c(=O)n(C)n2-c1cccs1 | 2330 nM
13 | CC(=O)c1ccc(Nc2nc(-c3sc(C)nc3C)cs2)cc1 | 17.3 nM
14 | CCn1c(=S)[nH]c2cc(S(=O)(=O)N3CCCCC3)ccc21 | 1250 nM
15 | Cc1cnc(NC(=O)C2CC(=O)N(c3cccc(Cl)c3)C2)s1 (stereo not given) | 1600 nM
16 | N#CC1=C(N)Oc2c(c(=O)sc3ccccc23)C1c1cccnc1 (stereo not given) | 1260 nM
17 | COc1cccc(NC(=O)CCCOc2cc(=O)n(C)c3ccccc23)c1 | 4630 nM
18 | COc1cccc(/C=N/NC(=O)c2cc3c(OC)c(OC)ccc3[nH]2)c1OC | 4940 nM
19 | COCCNC(=S)N1CCc2cc(OC)c(OC)cc2C1c1cccs1 (stereo not given) | 352 nM
20 | CCN(CCCNC(=O)COc1cc(=O)n(CC)c2ccccc12)Cc1ccccc1 | 517 nM
21 | COc1ccc(CC(=O)N(Cc2ccccc2)c2ccc(C)cc2)cc1S(=O)(=O)N1CCOCC1 | 2500 nM
22 | COc1ccc(S(=O)(=O)NCc2ccccn2)cc1NC(=O)c1ccccc1 | 834 nM
23 | CC(NC(=O)c1ccc2ccccc2n1)c1ccc(S(N)(=O)=O)cc1 (stereo not given) | 977 nM
24 | COCCNC(=O)c1cc(-c2ccccc2OC)on1 | 3840 nM
25 | Nc1[nH]nc2nc(NCc3ccccc3)c3c(c12)CCN(Cc1ccccc1)C3 | 2840 nM
26 | O=S(=O)([N-]c1nc2ccccc2nc1-n1cc[n+](Cc2ccccc2)c1)c1ccc(Br)cc1 | 57 nM
27 | CCOC(=O)c1c(C)nc2c(c1-c1cc(OC)c(OC)c(OC)c1)C(=O)c1ccccc1-2 | 514 nM

Row | Compound | AC35
28 | COc1ccc(-c2cc3ccccc3oc2=O)cc1NC(=O)c1ccc([N+](=O)[O-])o1 | 837 nM
29 | CC(=O)Nc1cccc(-c2ccnc3c2CC(C)(C(=O)NCC2CC2)O3)c1 (stereo not given) | 11500 nM
30 | Cc1ccc(C(=O)N/C(=C/c2ccco2)C(=O)NCCc2c[nH]c3ccccc23)cc1 | 1750 nM
31 | COc1ccc(OC)c(Nc2ncnc3c2cnn3-c2cccc(C)c2)c1 | 4590 nM
32 | CC1c2cc3c(cc2CCN1C(=O)c1ccc(Br)cc1)OCCCO3 (stereo not given) | 172 nM
33 | COc1cc(/C=N/n2cnc3scc(-c4cccs4)c3c2=O)cc(OC)c1OC | 177 nM
34 | COc1cc(/C=C2\SC(=S)N(CCC(=O)N3CCCCC3)C2=O)cc(OC)c1OC | 3440 nM
35 | COc1cccc(CNC(=O)COC(=O)c2ccc(-c3ccc(O)cc3)cc2)c1 | 3650 nM
36 | COc1ccc(-n2c(=S)[nH]c3cc(C(=O)NC4CCCCC4)ccc3c2=O)c(OC)c1 | 414 nM
37 | COc1ccc(/C=C/C(=O)c2ccc(Cl)s2)cc1O | 6020 nM
38 | O=c1[nH]c(-c2ccccc2)nc2sc(-c3ccccc3)cc12 | 188 nM
39 | CC(C)Oc1ccc(C(=O)Nc2ccc3c(c2)n(C)c(=O)n3C)cc1 | 5520 nM
40 | CCn1ncc(C2=NOC(C(=O)NCc3ccc(Cl)cc3)C2)c1C (stereo not given) | 14700 nM
41 | Cc1nc(Nc2nc(-c3ccccc3)cc(=O)[nH]2)nc2ccccc12 | 4910 nM
42 | C[C@@]12C(=O)Nc3cc(F)c(F)cc3C(=O)N1[C@H]1c3cc(Cl)ccc3OC[C@@H]1[C@@H]2c1ccccc1 | 1600 nM
43 | Cn1c(=O)[nH]c(=O)c2c1nc(SCC(N)=O)n2Cc1cccc(Br)c1 | 421 nM
44 | CCOC(=O)[C@H]1[C@H]2COc3ccc(Br)cc3[C@@H]2N2C(=O)c3cc(OC)c(OC)cc3NC(=O)[C@@]12C | 3990 nM
45 | O=C(NO)c1ccc(OC(F)F)cc1 | 1520 nM
46 | CCOC(=O)N1CCc2cc(OC)c(OC)c3c2c1cc1cc(OC)c(OC)cc13 | 1940 nM
47 | CCc1ccc(N2C(=O)Nc3ccccc3C2(O)C(=O)N2CCN(c3ccccn3)CC2)cc1 (stereo not given) | 493 nM
48 | COc1ccc(-c2cc(C(F)F)n3ncc(C(=O)n4ccnc4C)c3n2)cc1 | 2770 nM
49 | CCN(CC)c1ccc(/C=N\NC(=O)c2cccc3cc[nH]c23)cc1 | 1940 nM
50 | Cn1c(=O)n(C)c2cc(C(=O)Nc3ccc4c(c3)OCO4)ccc21 | 1870 nM
51 | COc1ccc(Nc2nc(N(C)c3ccccc3)nc(N)c2[N+](=O)[O-])cc1 | 171 nM
52 | CC(=O)C1=C(O)C(=O)N(c2ccc(Br)cn2)C1c1ccc(Br)cc1 (stereo not given) | 55.2 nM
53 | COc1ccc2c(c1)OC[C@H]1[C@H]2N2C(=O)c3cc(Cl)ccc3NC(=O)[C@@]2(C)[C@H]1c1ccccc1 | 996 nM
54 | COc1ccc2c(c1)[C@H]1[C@H](CO2)[C@H](c2ccccc2)[C@]2(C)C(=O)Nc3cc(F)ccc3C(=O)N12 | 326 nM

Row | Compound | AC35
55 | C[C@@H](NC(=O)c1ncn2c1c(=O)[nH]c1ccc(Br)cc12)c1ccccc1 | 210 nM
56 | Cc1cc(=O)n2c3c(c4c(cc13)c(CN(C)C)cc(=O)n4C)OC2 | 31.5 nM
57 | Nc1c(C(=O)c2ccccc2)sc2nsc(SCCN3CCOCC3)c12 | 57.8 nM
58 | CC(C)n1c(/C=C/[C@H](O)C[C@H](O)CC(=O)O)c(-c2ccc(F)cc2)c2ccccc21 | 370 nM
59 | CC(=O)Nc1ccc(Nc2ccc3c4c(cc(=O)n3C)-c3ccccc3C(=O)c24)cc1 | 345 nM
60 | CC(C)(C)OC(=O)[C@H](Cc1ccccc1)NC(=O)c1nc[nH]c1C(=O)N1CCc2ccccc2C1 | 2550 nM
61 | Cc1ccc(N2CC(C(=O)Nc3ccc(S(=O)(=O)N4CCOCC4)cc3)CC2=O)cc1Cl (stereo not given) | 2530 nM
62 | Cc1ccc(CC(=O)NCc2ccc(F)cc2)cc1 | 4270 nM
63 | O=S(=O)(Cc1ccc(Cl)cc1Cl)c1ccc(Cl)cc1 | 1490 nM
64 | CC(C)(C)c1ccc(OCC(=O)Nc2ccncc2)c(Br)c1 | 35.6 nM
65 | CCN(CC)S(=O)(=O)c1ccc(N2CCOCC2)c(NC(=O)c2[nH]c(C)c(C(C)=O)c2C)c1 | 330 nM
66 | COc1ccc(/C(C)=N/NC(=O)c2ccccc2OCc2ccccc2)c(OC)c1 | 56 nM
67 | O=C1COc2ccc(C(=O)/C=C/c3ccccc3)cc2N1 | 641 nM
68 | Cc1cccc(NC(=O)Nc2cccc(C#N)c2)n1 | 467 nM
69 | CCOC(=O)n1c(=O)n(Cc2ccc(OC)cc2)c2ccccc21 | > 19500 nM (inactive)
70 | COc1ccc(CNC(=O)c2cccc3c(-c4cnn(C)c4)coc23)cc1OC | 1300 nM
71 | COc1ccc(C(=O)/C=C/c2ccc(OC)c(O)c2)c(F)c1 | 219 nM
72 | CCOc1ccc(/C=C2\SC(N3CCCCC3)=NC2=O)cc1 | 5570 nM
73 | Cc1ccc(N2C(=O)Nc3ccccc3C2(O)C(=O)N2CCN(c3ccccn3)CC2)cc1C (stereo not given) | 375 nM
74 | c1ccc(CNc2nc(-c3ccccc3)nc3ccccc23)cc1 | 3010 nM
75 | O=C(Nc1ccc2oc(-c3cccnc3)nc2c1)c1ccc([N+](=O)[O-])o1 | 1460 nM
76 | COc1cccc(-c2cnc3c(NC(C)=O)cc(-c4cc(F)ccc4OC)cn23)c1 | 4270 nM
77 | COc1ccc(CCNC(=O)c2cc(-c3ccco3)on2)cc1OC | 15000 nM
78 | COc1ccc(CC(=O)NCc2ccc(-n3cccc3)cc2)cc1OC | 1610 nM
79 | COc1ccc2c(c1)C(=O)N1[C@H]3c4cc(C)ccc4OC[C@@H]3[C@H](c3ccccc3)[C@]1(C)C(=O)N2 | 933 nM
80 | CC(CC(=O)Nc1ccc2c(c1)c(=O)n(C)n2-c1cccs1)c1ccccc1 (stereo not given) | 7420 nM
81 | OCCCCCN=c1cc(-c2ccccc2)oc2ccc(Cl)cc12 | 2190 nM

Row | Compound | AC35
82 | COc1cccc(/C=N/NC(=O)c2ccc(N3CCCC3=O)cc2)c1 | 733 nM
83 | Brc1ccc(C2=Nn3c(nnc3-c3n[nH]c4c3CCC4)SC2)cc1 | 394 nM
84 | COc1cccc(/C=C2\SC(=S)N(CCC(=O)N3CCCCC3)C2=O)c1 | 4370 nM
85 | Nc1nc(CN2CCN(Cc3ccccc3)CC2)nc(Nc2ccc3c(c2)OCCO3)n1 | 251 nM
86 | OCC1OC(n2cnc3c(SCc4ccccc4)ncnc32)C(O)C1O (stereo not given) | 733 nM
87 | COc1ccc2[nH]c(C(=O)N/N=C/c3ccccc3OC)cc2c1 | 1170 nM
88 | COc1ccc(C(=O)N2CCN(S(=O)(=O)c3ccc(C)cc3C)CC2)cc1S(=O)(=O)N1CCOCC1 | 4790 nM
89 | CCCCCC(O)C=CC1C(O)CC(O)C1CC=CCCCC(=O)O (stereo not given) | 3.82 nM
90 | COc1ccc2nc(C)cc(Nc3ccc(N4CCN(C)CC4)cc3)c2c1 | 4750 nM
91 | COc1ccc(Sc2nnc(Cc3ccccc3)c3ccccc23)cc1 | 4370 nM
92 | Cc1ccc2nsnc2c1NC(=O)c1ccc(-c2cc(Cl)ccc2Cl)o1 | 1550 nM
93 | CN(C)C(CNC(=O)CSc1nc2sc3c(c2c(=O)n1C)CCCC3)c1ccccc1 (stereo not given) | 682 nM
94 | Cc1ccc2c(c1)NC(=O)[C@@]1(C)[C@@H](c3ccccc3)[C@H]3COc4ccccc4[C@@H]3N1C2=O | 371 nM
95 | COc1cc(Nc2c3ccccc3nc3ccccc23)cc(OC)c1OC | 4160 nM
96 | O=C1[C@H]2[C@@H](c3ccc(F)cc3)N3C(=O)N(c4cccc(Cl)c4)C(=O)[C@@]3(Cc3ccccc3)[C@H]2C(=O)N1C1CCCCC1 | 1060 nM
97 | O=C(/C=C/c1ccccc1)c1ccccc1 | 1200 nM
98 | COc1cc(/C=N/NC(=O)c2ccc(-c3ccccc3)cc2)cc(OC)c1OC | 4600 nM
99 | CC(=O)Nc1sc(C)c(C)c1C(=O)OCC(=O)Nc1ccccc1 | 1920 nM
100 | O=C(Nc1cccc(-c2cn3ccccc3n2)c1)c1cccc(Cl)c1 | 2150 nM
101 | NNC(=O)c1ccc(OCC2CC(c3ccc(Cl)cc3)=NO2)cc1 (stereo not given) | 157 nM
102 | c1ccc(CNc2ncnc3c2cnn3-c2ccccc2)cc1 | 719 nM
103 | Cc1ccc2nc(-c3ccccc3)cc(C(=O)N3CC(C)OC(C)C3)c2c1 (stereo not given) | 1920 nM
104 | Cc1ccc(S(=O)(=O)N(C)C[C@H]2Oc3ccc(NC(=O)C4CCCCC4)cc3C(=O)N([C@H](C)CO)C[C@H]2C)cc1 | 555 nM
105 | Nc1c(N(Cc2ccccc2)C(=O)COc2ccc([N+](=O)[O-])cc2)c(=O)[nH]c(=O)n1Cc1ccccc1 | 303 nM
